For this assay, the target named is GABAA receptor. Briefly: Steroid inhibition of [35S]-TBPS binding. As to conditions: rat brain cortical membranes, 3 nM [35S]-TBPS, in the presence of 5 mM GABA. The protocol:
Steroid Inhibition of TBPS Binding
Briefly, cortices are rapidly removed following decapitation of carbon dioxide-anesthetized Sprague-Dawley rats ([…]). The cortices are homogenized in 10 volumes of ice-cold 0.32 M sucrose using a glass/teflon homogenizer and centrifuged at 1500×g for 10 min at 4° C. The resultant supernatants are centrifuged at 10,000×g for 20 min at 4° C. to obtain the P2 pellets. The P2 pellets are resuspended in 200 mM NaCl/50 mM Na—K phosphate pH 7.4 buffer and centrifuged at 10,000×g for 10 min at 4° C. This washing procedure is repeated twice and the pellets are resuspended in 10 volumes of buffer. Aliquots ([…]) of the membrane suspensions are incubated with 3 nM [^35S]-TBPS and […] aliquots of test drug dissolved in dimethyl sulfoxide (DMSO) (final 0.5%) in the presence of 5 mM GABA. The incubation is brought to a final volume of 1.0 mL with buffer. […] Following a 90 min incubation at room temp, the assays are terminated by filtration through glass fiber filters (Schleicher and Schuell No. 32) using a cell harvester (Brandel) and rinsed three times with ice-cold buffer. Filter bound radioactivity is measured by liquid scintillation spectrometry. Non-linear curve fitting of the overall data for each drug averaged for each concentration is done using Prism (GraphPad).
Various compounds are or can be screened to determine their potential as modulators of [^35S]-TBPS binding in vitro. These assays are or can be performed in accordance with the above discussed procedures.

Structures are written as SMILES.

The term IC50 denotes the concentration that gives 50% inhibition.

For `C[C@@]1(O)CC[C@@]2(C)[C@@H](CC[C@@H]3[C@@H]2CC[C@]2(C)[C@@H](Nc4ccccc4F)CC[C@@H]32)C1` [Compound 91], the half-maximal inhibitory concentration (IC50) is over 500 nM.

Take `C[C@@]1(O)CC[C@@]2(C)[C@@H](CC[C@@H]3[C@@H]2CC[C@]2(C)[C@@H](NCc4ccccc4)CC[C@@H]32)C1` [Compound 92]: the half-inhibitory concentration (IC50) is over 500 nM.

For the compound `C[C@@]1(O)CC[C@@]2(C)[C@@H](CC[C@@H]3[C@@H]2CC[C@]2(C)[C@@H](N)CC[C@@H]32)C1` [Compound 93], the IC50 is over 500 nM.

With `C[C@@]1(O)CC[C@@]2(C)[C@@H](CC[C@@H]3[C@@H]2CC[C@]2(C)[C@@H](NC(=O)c4ccccc4)CC[C@@H]32)C1` [Compound 94], the IC50 was over 500 nM.

For the compound `CC(=O)N[C@H]1CC[C@H]2[C@@H]3CC[C@H]4C[C@](C)(O)CC[C@]4(C)[C@H]3CC[C@]12C` [Compound 95], the IC50 was over 500 nM.

`CN([C@H]1CC[C@H]2[C@@H]3CC[C@H]4C[C@](C)(O)CC[C@]4(C)[C@H]3CC[C@]12C)S(=O)(=O)c1ccccc1` [Compound 96]: the IC50 is over 500 nM.

Consider `C[C@@]1(O)CC[C@@]2(C)[C@@H](CC[C@@H]3[C@@H]2CC[C@]2(C)[C@@H](NS(C)(=O)=O)CC[C@@H]32)C1` [Compound 97], for which the 50% inhibitory concentration (IC50) is over 500 nM.

As to `CN([C@H]1CC[C@H]2[C@@H]3CC[C@H]4C[C@](C)(O)CC[C@]4(C)[C@H]3CC[C@]12C)S(C)(=O)=O` [Compound 98], the IC50 was over 500 nM.

With `COC(=O)N(C)[C@H]1CC[C@H]2[C@@H]3CC[C@H]4C[C@](C)(O)CC[C@]4(C)[C@H]3CC[C@]12C` [Compound 99], the IC50 was over 500 nM.

Turning to `C[C@@]1(O)CC[C@H]2[C@H](CC[C@@H]3[C@@H]2CC[C@]2(C)[C@@H](c4ccccc4)CC[C@@H]32)C1` [Compound 101], the concentration for half-maximal inhibition (IC50) lay in the range of 100 to 500 nM.

In the case of `Cc1ccc([C@H]2CC[C@H]3[C@@H]4CC[C@@H]5C[C@](C)(O)CC[C@@H]5[C@H]4CC[C@]23C)cc1` [Compound 102], the concentration for half-maximal inhibition (IC50) was in the range of 100 to 500 nM.

In the case of `C[C@@]1(O)CC[C@H]2[C@H](CC[C@@H]3[C@@H]2CC[C@]2(C)[C@@H](c4ccncc4)CC[C@@H]32)C1` [Compound 103], the 50% inhibitory concentration (IC50) is 10 to 50 nM.

On to `C[C@@]1(O)CC[C@H]2[C@H](CC[C@@H]3[C@@H]2CC[C@]2(C)[C@@H](c4cncnc4)CC[C@@H]32)C1` [Compound 104], for which the concentration for half-maximal inhibition (IC50) was 50 to 100 nM.

For the compound `C[C@@]1(O)CC[C@H]2[C@H](CC[C@@H]3[C@@H]2CC[C@]2(C)[C@@H](c4cccc(C#N)c4)CC[C@@H]32)C1` [Compound 105], the concentration for half-maximal inhibition (IC50) lay in the range of 10 to 50 nM.

For the compound `C[C@@]1(O)CC[C@H]2[C@H](CC[C@@H]3[C@@H]2CC[C@]2(C)[C@@H](c4cccnc4)CC[C@@H]32)C1` [Compound 106], the IC50 was 10 to 50 nM.

For `C[C@@]1(O)CC[C@H]2[C@H](CC[C@@H]3[C@@H]2CC[C@]2(C)[C@@H](C4CCOCC4)CC[C@@H]32)C1` [Compound 107], the IC50 was over 500 nM.

For the compound `C[C@@]1(O)CC[C@H]2[C@H](CC[C@@H]3[C@@H]2CC[C@]2(C)[C@@H](c4ccccn4)CC[C@@H]32)C1` [Compound 108], the IC50 lay within 100 to 500 nM.

As for `C[C@@]1(O)CC[C@H]2[C@H](CC[C@@H]3[C@@H]2CC[C@]2(C)[C@@H](C4CCCC4)CC[C@@H]32)C1` [Compound 109], the 50% inhibitory concentration (IC50) was over 500 nM.

For `C[C@@]1(O)CC[C@H]2[C@H](CC[C@@H]3[C@@H]2CC[C@]2(C)[C@@H](c4ccc(C#N)cc4)CC[C@@H]32)C1` [Compound 110], the concentration for half-maximal inhibition (IC50) was in the range of 10 to 50 nM.

As for `Cn1cc([C@H]2CC[C@H]3[C@@H]4CC[C@@H]5C[C@](C)(O)CC[C@@H]5[C@H]4CC[C@]23C)cn1` [Compound 111], the half-maximal inhibitory concentration (IC50) lay within 50 to 100 nM.

As for `C[C@@]1(O)CC[C@@]2(C)[C@@H](CC[C@@H]3[C@@H]2CC[C@]2(C)[C@@H](OCc4ccccc4)CC[C@@H]32)C1` [Compound 112], the concentration for half-maximal inhibition (IC50) was over 500 nM.

`CO[C@H]1C[C@@]2(C)[C@@H](CC[C@@H]3[C@@H]2CC[C@]2(C)[C@@H]([N+](=O)[O-])CC[C@@H]32)C[C@@H]1O` [Compound 118]: the IC50 lay in the range of 10 to 50 nM.

As for `CO[C@H]1C[C@]2(C)[C@@H]([N+](=O)[O-])CC[C@H]2[C@@H]2CC[C@H]3C[C@H](O)[C@@H](OC)C[C@]3(C)[C@H]21` [Compound 119], the half-maximal inhibitory concentration (IC50) is 10 to 50 nM.

Regarding `CO[C@H]1C[C@@]2(C)[C@@H](CC[C@@H]3[C@@H]2[C@@H](O)C[C@]2(C)[C@@H]([N+](=O)[O-])CC[C@@H]32)C[C@@H]1O` [Compound 120], the IC50 lay in the range of 100 to 500 nM.

Turning to `CO[C@H]1C[C@@]2(C)[C@@H](CC[C@H]3[C@@H]4CC[C@H]([N+](=O)[O-])[C@@]4(C)CC(=O)[C@@H]32)C[C@@H]1O` [Compound 121], the IC50 was 100 to 500 nM.

Turning to `CCO[C@H]1C[C@@]2(C)[C@@H](CC[C@@H]3[C@@H]2[C@@H](O)C[C@]2(C)[C@@H]([N+](=O)[O-])CC[C@@H]32)C[C@@H]1O` [Compound 122], the IC50 lay in the range of 100 to 500 nM.

For `CCO[C@H]1C[C@@]2(C)[C@@H](CC[C@H]3[C@@H]4CC[C@H]([N+](=O)[O-])[C@@]4(C)CC(=O)[C@@H]32)C[C@@H]1O` [Compound 123], the IC50 lay in the range of 50 to 100 nM.

With `CC1(O)CC[C@H]2[C@@H]3CC[C@@H]4C[C@](C)(O)CC[C@@H]4[C@H]3CC[C@@]21C` (stereo partly shown) [Compound 126], the IC50 is over 500 nM.

The record behind these values is patent publication US12655175B2, “C17, C20, and C21 substituted neuroactive steroids and their methods of use” (Sage Therapeutics, LLC, priority 2016, dated 2026).
